{
  "source": "paper PMC9832530",
  "about": "(FASEB BioAdvances, 2022)",
  "target": "T1, drFtsZ (FtsZWT) (Deinococcus radiodurans, UniProt Q9RWN5)",
  "T1 sequence (Q9RWN5 1-371)": "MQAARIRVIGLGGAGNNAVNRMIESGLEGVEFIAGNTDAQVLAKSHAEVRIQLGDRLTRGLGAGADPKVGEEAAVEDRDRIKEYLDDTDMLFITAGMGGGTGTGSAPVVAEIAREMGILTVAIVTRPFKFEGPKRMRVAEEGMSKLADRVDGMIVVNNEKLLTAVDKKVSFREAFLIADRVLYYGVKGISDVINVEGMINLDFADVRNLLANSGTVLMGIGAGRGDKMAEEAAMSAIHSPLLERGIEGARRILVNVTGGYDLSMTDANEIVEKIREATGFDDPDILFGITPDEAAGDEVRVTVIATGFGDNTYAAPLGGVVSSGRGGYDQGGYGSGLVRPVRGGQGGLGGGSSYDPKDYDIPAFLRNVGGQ",
  "test": "GTPase, [alpha-32P]-GTP to GDP by TLC",
  "type": "biochemical",
  "conditions": "20 mM Tris-HCl pH 7.5, 75 mM KCl, MgCl2, 37 °C, 20 min; labelled compound",
  "data": [
    {"smiles": "Nc1nc2c(ncn2[C@@H]2O[C@H](COP(=O)(O)OP(=O)(O)OP(=O)(O)O)[C@@H](O)[C@H]2O)c(=O)[nH]1", "note": "[GTP]", "values": [
      {"measurement": "GTPase, [alpha-32P]-GTP to GDP by TLC", "value": "The GTPase activity of S235 and S335 mutants were estimated using thin‐layer chromatography"}
    ]}
  ]
}
